Data: patent publication US20020026052A1, “3-cyanoquinolines, 3-cyano-1,6-naphthyridines, and 3-cyano-1,7-naphthyridines as protein kinase inhibitors” (American Home Products Corporation, priority 2000, published 2002)

| Structure (SMILES) | melting point |
| --- | --- |
| N#Cc1cnc2cc(C#CCO)ccc2c1Nc1ccc(Cl)cc1Cl [Example 14, 4-(2,4-Dichloroanilino)-7-(3-hydroxy-1-propynyl)-3-quinolinecarbonitrile] | 251 to 253 °C |
| CN1CCN(Cc2ccc(-c3ccc4c(Nc5ccc(Sc6nccn6C)c(Cl)c5)c(C#N)cnc4c3)cn2)CC1 [Example 221, 4-({3-Chloro-4-[(1-methyl-1H-imidazol-2-yl)sulfanyl]phenyl}amino)-7-1-{6-[(4-methyl-1-piperazinyl)methyl]-3-pyridinyl}-3-quinolinecarbonitrile] | 228 to 230 °C |
| Cn1ccnc1Sc1ccc(Nc2c(C#N)cnc3cc(-c4ccc(N5CCC(N6CCCC6)CC5)nc4)ccc23)cc1Cl [Example 210, 4-({3-Chloro-4-[(1-methyl-H-imidazol-2-yl)sulfanyl]phenyl}amino)-7-{6-[4-(1-pyrrolidinyl)-1-piperidinyl]-3-pyridinyl}-3-quinolinecarbonitrile] | 230 °C (dec.) |
| COc1cc2c(Nc3ccc(Sc4nccn4C)c(Cl)c3)c(C#N)cnc2cc1-c1csc(CN2CCN(C)CC2)c1 [Example 126, 4-{3-chloro-4-[(1-methylimidazol-2-yl)sulfanyl]anilino}-6-methoxy-7-{5-[(4-methyl-1-piperazinyl)methyl]-3-thienyl}-3-quinolinecarbonitrile] | 162 to 164 °C |
| CCN1CCN(c2ccc(-c3ccc4c(Nc5ccc(Sc6nccn6C)c(Cl)c5)c(C#N)cnc4c3)cn2)CC1 [Example 195, 4-{3-Chloro-4-[(1-methyl-1H-imidazol-2-yl)sulfanyl]anilino}-7-[6-(4-ethyl-1-piperazinyl)-3-pyridinyl]-3-quinolinecarbonitrile] | 254 to 256 °C |
| Cn1ccnc1Sc1ccc(Nc2c(C#N)cnc3cc(-c4cc(CN5CCOCC5)ccn4)ccc23)cc1Cl [Example 203, 4-({3-Chloro-4-[(1-methyl-1H-imidazol-2-yl)sulfanyl]phenyl}amino)-7-[4-(4-morpholinylmethyl)-2-pyridinyl]-3-quinolinecarbonitrile] | 205 to 207 °C |
| COc1cc2c(Nc3ccc(Sc4nccn4C)c(Cl)c3)c(C#N)cnc2cc1-c1csc(CN2CCOCC2)c1 [Example 125, 4-{3-chloro-4-[(1-methylimidazol-2-yl)sulfanyl]anilino}-6-methoxy-7-[5-(4-morpholinylmethyl)-3-thienyl]-3-quinolinecarbonitrile] | 238 to 240 °C |
| COCCN(C)c1ccc(-c2ccc3c(Nc4ccc(Sc5nccn5C)c(Cl)c4)c(C#N)cnc3c2)cn1 [Example 212, 4-({3-Chloro-4-[(1-methyl-1H-imidazol-2-yl)sulfanyl]phenyl}amino)-7-{6-[(2-methoxyethyl) (methyl)amino]-3-pyridinyl}-3-quinolinecarbonitrile] | 224 to 226 °C |
| CCN1CCN(Cc2ccc(-c3ccc4c(Nc5ccc(Sc6nccn6C)c(Cl)c5)c(C#N)cnc4c3)nc2)CC1 [Example 171, 4-{3-Chloro-4-[(1-methyl-1H-imidazol-2-yl)sulfanyl]anilino}-7-{5-[(4-ethyl-1-piperazinyl)methyl]-2-pyridinyl}-3-quinolinecarbonitrile] | 125 to 130 °C |
| Cn1ccnc1Sc1ccc(Nc2c(C#N)cnc3cc(-c4ccc(CN5CCC(N6CCCC6)CC5)cn4)ccc23)cc1Cl [Example 173, 4-{3-Chloro-4-[(1-methyl-1H-imidazol-2-yl)sulfanyl]anilino}-7-(5-{[4-(1-pyrrolidinyl)-1-piperidinyl]methyl}-2-pyridinyl)-3-quinolinecarbonitrile] | 183 to 185 °C |
| N#Cc1cnc2cc(-c3cc(CN4CCOCC4)c(CN4CCOCC4)s3)ccc2c1Nc1ccc(Oc2ccccc2)cc1 [Example 168, 7-[4,5-Bis(4-morpholinylmethyl)-2-thienyl]-4-(4-phenoxyanilino)-3-quinolinecarbonitrile] | 158 to 160 °C |
| CN(CCO)c1ccc(-c2ccc3c(Nc4ccc(Sc5nccn5C)c(Cl)c4)c(C#N)cnc3c2)cn1 [Example 216, 4-({3-Chloro-4-[(1-methyl-1H-imidazol-2-yl)sulfanyl]phenyl}amino)-7-{6-[(2-hydroxyethyl) (methyl)amino]-3-pyridinyl}-3-quinolinecarbonitrile] | 228 °C (dec.) |
| Cn1ccnc1Sc1ccc(Nc2c(C#N)cnc3cc(-c4ccc(CN5CCC(C(=O)O)CC5)cn4)ccc23)cc1Cl [Example 175, 1-{[6-(4-{3-chloro-4-[(1-methyl-1H-imidazol-2-yl)sulfanyl]anilino}-3-cyano-7-quinolinyl)-3-pyridinyl]methyl}-4-piperidinecarboxylic acid] | 166 to 168 °C |
| Cn1ccnc1Sc1ccc(Nc2c(C#N)cnc3cc(-c4ccc(CN5CCC(O)CC5)s4)ccc23)cc1Cl [Example 159, 4-{3-Chloro-4-[(1-methyl-1H-imidazol-2-yl)sulfanyl]anilino}-7-{5-[(4-hydroxy-1-piperidinyl)methyl]-2-thienyl}-3-quinolinecarbonitrile] | 147 to 149 °C |
| CN(CCO)Cc1ccc(-c2ccc3c(Nc4ccc(Sc5nccn5C)c(Cl)c4)c(C#N)cnc3c2)nc1 [Example 106, 4-({3-Chloro-4-[(1-methyl-IH-irnidazol-2-yl)sulfanyl]phenyl}amino)-7-(5-{[(2-hydroxyethyl) (methyl)amino]methyl}-2-pyridinyl)-3-quinolinecarbonitrile] | 197 to 199 °C |
| COc1cc(Nc2c(C#N)cnc3cc(-c4csc(C=O)c4)ccc23)c(Cl)cc1Cl [Example 43, 4-(2,4-Dichloro-5-methoxyanilino)-7-(5-formyl-3-thienyl)-3-quinolinecarbonitrile] | 259 to 262 °C (dec.) |
| COc1cc(Nc2c(C#N)cnc3cc(-c4ccc(CN5CCOCC5)nc4)ccc23)c(Cl)cc1Cl | 195 to 197 °C |
| Cn1ccnc1Sc1ccc(Nc2c(C#N)cnc3cc(-c4ccc(CN5CCC(O)CC5)nc4)ccc23)cc1Cl [Example 223, 4-({3-Chloro-4-[(1-methyl-1H-imidazol-2-yl)sulfanyl]phenyl}amino)-7-{6-[(4-hydroxy-1-piperidinyl)methyl]-3-pyridinyl}-3-quinolinecarbonitrile] | 242 to 244 °C |
| COc1cc(Nc2c(C#N)cnc3cc(-c4cnc(CN5CCN(C)CC5)n4C)ccc23)c(Cl)cc1Cl [Example 227, 4-(2,4-Dichloro-5-methoxyanilino)-7-{1-methyl-2-[(4-methyl-1-piperazinyl)methyl]-1H-imidazol-5-yl}-3-quinolinecarbonitrile] | 156 to 159 °C |
| COc1cc(Nc2c(C#N)cnc3cc(-c4ccc(CN5CC[S+]([O-])CC5)cc4)ccc23)c(Cl)cc1Cl [Example 151, 4-[(2,4-Dichloro-5-methoxyphenyl)amino]-7-{4-[(1-oxido-4-thiomorpholinyl)methyl]phenyl}-3-quinolinecarbonitrile] | 244 to 247 °C |
| Cc1cc(Nc2c(C#N)cnc3cc(-c4csc(C5OCCO5)c4)ccc23)ccc1OCc1ccccn1 [Example 94, 7-[5-(1,3-Dioxolan-2-yl)-3-thienyl]-4-[3-methyl-4-(2-pyridinylmethoxy)anilino]-3-quinolinecarbonitrile] | 194 to 196 °C |
| COc1cc(Nc2c(C#N)cnc3cc(-c4ccc(N5CCN(C)CC5)nc4)ccc23)c(Cl)cc1Cl [Example 198, 4-(2,4-Dichloro-5-methoxyanilino)-7-[6-(4-methyl-1-piperazinyl)-3-pyridinyl]-3-quinolinecarbonitrile] | 240 to 242 °C |
